Experimental findings from patent US20120088827A1 (Profectus Biosciences, Inc., priority 2009, published 2012) are described below.

By EC50 is commonly meant the concentration giving half of the maximal effect. By IC50 is commonly meant the concentration at which inhibition is half-maximal.

Read-outs that look alike come from different tables or passages of the source.

Experiment [1] deals with NF-κB driven transcription (pNF-κB-luc reporter, 293 cells). Briefly: 293/NF-kB-luc reporter cell assay. The experiment is classed as cell-based. As to conditions: Homo sapiens; compound 2 hours, then 20 ng/ml TNF-α for 18 hours; luminescence. The protocol: (§1) Two reporter cell assays were used to determine the ability of the compounds of Examples 1-12 to inhibit NF-κB driven transcription. The first assay was a 293-cell based assay with a stably integrated pNF-κB-luc reporter plasmid containing 3 NF-κB promoter elements. The second assay was a 293-cell based assay with a stably integrated pTRH1-NF-κB-dscGFP reporter containing 4 NF-κB promoter elements. Cells were treated with 0, 0.2, 1, 10, 20 and 40 μM of the compounds of Example 1-12 for 2 hours then were induced with 20 ng/ml TNF-α for 18 hours. Following the induction, luminescence or fluorescence was quantified using a Beckman-Coulter 2300 plate reader. […] As a control, 0.5% DMSO treated and untreated cells were compared to verify that the compounds of Examples 1-12 had no effect on the expression of luciferase or in the readout of the assay. There was a slight decrease in the output from the assay in the DMSO treated population although it was not statistically significant. As a result of the controls, the decrease in activity in the drug treated samples was compared to the DMSO control sample.

Another experiment has as its system IL-6. Description: Inhibition of IL-6 release in LPS-stimulated RAW 264.7 cells. Type of experiment: cell-based. As to conditions: Mus musculus, RAW264.7; pretreated 2 hours, 1 μg/mL LPS 20-24 hours. The protocol:
RAW 264.7 cells were seeded at 4×10^4 cells per well in complete growth medium in 96 well white TC plates with clear bottoms one day prior to the assay. The next day the cells were washed once and 100 μL fresh growth media was added. Cells were pretreated with 0.5 μL from a 6 point 200× dilution series of the test compounds in DMSO for 2 hours. Following pretreatment with the drugs, the inflammatory response was induced by adding 5 μL of a 20 μg/mL solution of LPS (Sigma). The cells were incubated in the presence of the drugs and 1 μg/mL LPS for another 20-24 hours. Typically after treatment the total DMSO was […] of the culture volume and the final concentrations of the compounds were approximately: 40, 20, 10, 1, 0.2 and 0 μM depending on the MW of each compound. Modified dilution series were prepared as needed to get adequate dose response curves without changing the % DMSO. Samples were run in duplicate or triplicate and included DMSO treated control wells with and without LPS stimulation. Drugs with a known activity such as Parthenolide or DHMEQ were run as experimental controls. After 20-24 hours LPS activation, the media supernatant was collected from the cells and replaced with fresh media. The supernatant samples were cleared by centrifugation at 1,000×g for 5 minutes, transferred to fresh storage plates, and stored frozen at −30° C.
After determining the appropriate supernatant dilutions experimentally, mIL-6 levels in the supernatants were quantified using Quantikine™ mouse IL-6 Immunoassay (R&D Systems) according to the manufacturer's protocol. Approximately 50 μL of the supernatants diluted in Calibrator Diluent were added to 50 μL of Assay Diluent in microplate wells pre-coated with an anti-mouse IL-6 capture antibody. Controls included a calibrated positive IL-6 control sample, non-specific binding (NSB) wells containing Calibrator Diluent but no IL-6, and a recombinant mouse IL-6 standard dilution series (10-1000 pg/mL). The plates were incubated at room temperature for 2 hours with shaking and then washed 5 times with 400 μL 1× Wash Buffer. Approximately 100 μL of an HRP-conjugated anti-mouse IL-6 antibody was added to each well to detect IL-6 captured on the plate. The plates were incubated at room temperature for 2 hours and then washed 5 times with 400 μl 1× Wash Buffer. Equal volumes of Color Reagents A and B were mixed and 100 μL of this HRP Substrate Solution was added to each well on the plate. The blue color was allowed to develop for 30 minutes and then the reaction was stopped using 100 μL of Stop Solution yielding a yellow color. Absorbance at 450 nm with a reference wavelength subtracted at 595 nm was recorded using a Becton-Dickinson DTX 880 Multimode Detector.
The concentration of mIL-6 in the unknown samples was determined from a curve-fit of the mIL-6 standard absorbance data and multiplying by the dilution factor. The maximum activity achieved in the absence of the inhibitor (DMSO+LPS treated wells) was arbitrarily given a value of 100%; likewise the minimum activity in the absence of the stimulant (no LPS) was assigned a value of 0% Inhibition of the amount of mIL-6 cytokine released in the drug treated wells was calculated relative to the maximum activation in the DMSO+LPS treated control wells (i.e., % inhibition=100−(drug+LPS treated)/(DMSO+LPS treated)). Dose response curves were used to determine the effective concentration to inhibit 50% of the mIL-6 cytokine released (IC50) by means of a SigmaPlot macro which fits a sigmoidal dose-response curve to the (log 10) μM concentration versus % inhibition. […] This technique yields an objective value for the IC50 provided that 50% inhibition was approached at the concentrations tested.

For a further experiment, the target named is T1, NF-κB p65 (Homo sapiens, UniProt Q04206).
T1 construct: purchased Active Motif
T1 sequence (Q04206 whole entry): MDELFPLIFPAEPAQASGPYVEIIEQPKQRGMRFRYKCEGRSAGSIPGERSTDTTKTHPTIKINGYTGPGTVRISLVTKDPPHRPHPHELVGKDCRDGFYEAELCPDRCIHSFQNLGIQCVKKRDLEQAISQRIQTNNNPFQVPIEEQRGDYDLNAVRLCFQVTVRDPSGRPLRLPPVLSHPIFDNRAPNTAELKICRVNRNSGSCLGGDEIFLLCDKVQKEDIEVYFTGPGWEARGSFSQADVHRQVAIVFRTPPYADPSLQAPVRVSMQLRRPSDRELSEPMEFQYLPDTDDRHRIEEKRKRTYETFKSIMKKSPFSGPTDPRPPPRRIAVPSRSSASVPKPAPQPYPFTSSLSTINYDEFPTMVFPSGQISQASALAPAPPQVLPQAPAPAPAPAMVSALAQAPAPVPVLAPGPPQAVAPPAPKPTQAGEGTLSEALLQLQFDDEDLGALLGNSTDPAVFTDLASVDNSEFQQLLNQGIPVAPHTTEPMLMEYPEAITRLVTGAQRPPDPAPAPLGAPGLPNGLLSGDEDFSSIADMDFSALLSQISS
Briefly: TransAM NF-κB Family DNA Binding ELISA, p65. On the procedure: The binding activity of NF-κB heterodimer or homodimer subunits from activated nuclear extracts or purified recombinant NF-κB proteins exposed to the drug compounds was evaluated using the TransAM NF-κB Family binding ELISA (Active Motif). Approximately 3-5 μg of nuclear extracts from TNFα activated Hela or Raji cells (Active Motif) or 20 ng of purified recombinant proteins (p65 and p50 from Active Motif, p52 from Santa Cruz) were incubated for 1 hour at room temperature with 20 μL drug compounds diluted in Complete Lysis buffer without DTT. Treated samples were then transferred to 30 μL Complete Binding Buffer (with DTT) in microplate wells pre-coated with the NF-κB consensus oligonucleotide. […] The plate was incubated for 1 hour at room temperature with gentle shaking and then washed 3 times with 200 μL 1× Wash Buffer. NF-κB p65, p50, p52, RelB, or c-Rel subunits bound to the plate were detected with 100 μL of the primary antibody (diluted 1:1000 in 1× Antibody Buffer) specific for that subunit. The plate was incubated for 1 hour at room temperature and then washed 3 times with 200 μL 1× Wash Buffer. Next, 100 μL of a HRP conjugated goat anti-rabbit antibody (diluted 1:1,000 in 1× Antibody Buffer) was added to each well. The plate was incubated for 1 hour at room temperature and then washed 4 times with 200 μL 1× Wash Buffer. 100 μL of room temperature Developing Solution was added to each well. The reaction was allowed to develop for 2-10 minutes until a medium dark blue color developed (depending on the subunit activity in the lot of extract or lot of recombinant protein used) and then the reaction was stopped with 100 μL Stop Solution yielding a yellow color. Absorbance was recorded using a Becton-Dickinson DTX 880 Multimode Detector at 450 nm with a reference wavelength subtracted at 620 nm.

Experiment [2] relates to NF-κB driven transcription (pTRH1-NF-κB-dscGFP reporter, 293 cells). Briefly: NF-kB/293/GFP reporter cell assay. Type of experiment: cell-based. The settings on record: Homo sapiens, HEK293; compound 2 hours, then 20 ng/ml TNF-α for 18 hours; fluorescence. On the procedure:
as §1

The mark [3] stands for this setting: binding to NF-κB consensus oligonucleotide, read-out: p65 binding IC50.

Turning to `CC(C)(C)CC(=O)Oc1ccccc1C(=O)NC1=CC(=O)C2OC2C1OC(=O)CC(C)(C)C` (racemic) [Example 9, (±)-2-(2-(3,3-dimethylbutanoyloxy)-5-oxo-7-oxabicyclo[4.1.0]hept-3-en-3-ylcarbamoyl)phenyl 3,3-dimethylbutanoate], the EC50 worked out at 15 µM in experiment [1], 1.4 µM in the experiment with IL-6 and 16 µM in experiment [2]. Also, the concentration for half-maximal inhibition (IC50) on NF-κB p65 (setting [3]) turned out to be 116 µM.

As for `CCOP(=O)(OCC)Oc1ccccc1C(=O)NC1=CC(=O)C2OC2C1O` (racemic) [Example 10, (±)-diethyl 2-(2-hydroxy-5-oxo-7-oxabicyclo[4.1.0]hept-3-en-3-ylcarbamoyl)phenyl phosphate], the concentration giving a half-maximal response (EC50) in experiment [1] was determined as 24 µM; in the experiment on IL-6, 6 µM; in experiment [2] it was 13 µM. In addition, the half-inhibitory concentration (IC50) at NF-κB p65 stood at 59 µM.

Take `O=C(Nc1ccccc1)OC1C(NC(=O)c2ccccc2O)=CC(=O)C2OC21` (racemic) [Example 11, (±)-3-(2-hydroxybenzamido)-5-oxo-7-oxabicyclo[4.1.0]hept-3-en-2-yl phenylcarbamate]: the concentration giving a half-maximal response (EC50) in experiment [1] turned out to be 3.3 µM; in the experiment with IL-6, 0.87 µM; in experiment [2], 4.3 µM. Besides, the half-inhibitory concentration (IC50) at NF-κB p65 (setting [3]) stood at 7.3 µM.

As for `O=C(NC1=CC(=O)C2OC2C1O)c1ccccc1OP(=O)(OCc1ccccc1)OCc1ccccc1` (racemic) [Example 12, (±)-dibenzyl 2-(2-hydroxy-5-oxo-7-oxabicyclo[4.1.0]hept-3-en-3-ylcarbamoyl)phenyl phosphate], the EC50 (in experiment [1]; in the experiment on IL-6; in experiment [2]) was over 26 µM throughout. Also, the IC50 on NF-κB p65 (setting [3]) is over 320 µM.
